From patent publication US9670195B2, “Glycosidase inhibitors and uses thereof” (Alectos Therapeutics Inc., priority 2012, dated 2017) come the findings set out here.

The experiment deals with human O-GlcNAcase (Homo sapiens (Human), UniProt O60502). The experiment in a line: Assay for determination of KI values for inhibition of O-GlcNAcase activity (fluorescence-based). It counts as biochemical. Conditions: purified human O-GlcNAcase, 4-Methylumbelliferyl N-acetyl-β-D-glucosaminide substrate, pH 7.0, Cheng-Prusoff; read-out: Fluorescence-based hOGA Ki. Here is the method:
Assay for Determination of KI Values for Inhibition of O-GlcNAcase Activity
Experimental Procedure for Kinetic Analyses:
Enzymatic reactions are carried out in a reaction containing 50 mM NaH2PO4, 100 mM NaCl and 0.1% BSA (pH 7.0) using 2 mM 4-Methylumbelliferyl N-acetyl-β-D-glucosaminide dihydrate (Sigma M2133) dissolved in ddH2O, as a substrate. The amount of purified human O-GlcNAcase enzyme used in the reaction is 0.7 nM. Test compound of varying concentrations is added to the enzyme prior to initiation of the reaction. The reaction is performed at room temperature in a 96-well plate and is initiated with the addition of substrate. The production of fluorescent product is measured every 60 sec for 45 min with a Tecan Infinite M200 plate-reader with excitation at 355 nm and emission detected at […], with 4-Methylumbelliferone (Sigma M1381) used to produce a standard curve. The slope of product production is determined for each concentration of compound tested and plotted, using standard curve fitting algorithms for sigmoidal dose response curves. The values for a four parameter logistic curve fit of the data are determined.
KI values are determined using the Cheng-Prusoff equation; the Km of O-GlcNAcase for substrate is 0.2 mM.

human O-GlcNAcase, sequence (O60502 whole entry): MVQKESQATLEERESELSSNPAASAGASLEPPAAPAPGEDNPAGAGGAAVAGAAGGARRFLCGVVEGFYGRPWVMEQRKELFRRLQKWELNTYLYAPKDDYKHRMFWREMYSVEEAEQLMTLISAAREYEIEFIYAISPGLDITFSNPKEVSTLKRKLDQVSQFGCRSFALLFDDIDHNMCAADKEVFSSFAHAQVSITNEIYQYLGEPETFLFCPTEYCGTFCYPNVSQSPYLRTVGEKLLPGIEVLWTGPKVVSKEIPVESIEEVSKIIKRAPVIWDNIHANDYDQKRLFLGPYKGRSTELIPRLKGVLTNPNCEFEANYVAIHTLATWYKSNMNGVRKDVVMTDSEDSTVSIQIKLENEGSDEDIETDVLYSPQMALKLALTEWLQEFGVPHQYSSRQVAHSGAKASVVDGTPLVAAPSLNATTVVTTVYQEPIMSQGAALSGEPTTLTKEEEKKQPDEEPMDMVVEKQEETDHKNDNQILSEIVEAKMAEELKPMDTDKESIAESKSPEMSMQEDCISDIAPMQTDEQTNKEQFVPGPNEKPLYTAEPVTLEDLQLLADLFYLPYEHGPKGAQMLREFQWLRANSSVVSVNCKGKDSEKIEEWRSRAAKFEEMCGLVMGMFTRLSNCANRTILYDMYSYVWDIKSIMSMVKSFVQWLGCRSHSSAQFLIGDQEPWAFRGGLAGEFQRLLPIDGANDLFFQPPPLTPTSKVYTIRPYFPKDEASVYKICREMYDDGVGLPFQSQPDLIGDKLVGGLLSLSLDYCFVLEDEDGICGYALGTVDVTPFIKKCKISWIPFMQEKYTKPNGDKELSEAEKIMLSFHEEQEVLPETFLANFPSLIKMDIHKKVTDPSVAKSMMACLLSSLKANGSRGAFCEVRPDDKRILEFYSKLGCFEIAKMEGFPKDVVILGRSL

Take `CC(=O)N[C@H]1CN[C@@H](CO)[C@@H]1O`: the Ki (as a rule, the equilibrium dissociation constant of an inhibitor or competing ligand from its target) was determined as 5.9 µM.

Turning to `CCCCN1C[C@H](NC(C)=O)[C@@H](O)[C@@H]1CO`, the Ki worked out at 15 µM.

As for `CC(=O)N[C@H]1CN(CCCc2ccccc2)[C@@H](CO)[C@@H]1O` [Example 1, N-((3S,4R,5S)-4-hydroxy-5-(hydroxymethyl)-1-(3-phenylpropyl)pyrrolidin-3-yl)acetamide], the Ki was found to be 16.5 µM.
